Assay [1] is described as follows: Single-channel conductance of homodimeric gA pores in planar lipid bilayers made from DiPhyPC (Example 1). It counts as biochemical. To be noted: for Single-channel conductance γ: HEPES pH 7.4, DiPhyPC bilayers, slope of I-V curves; for Single-channel conductance γ / γ at pH 7.4: homodimers; for γ-ratio to gA-gA: pH 7.4, DiPhyPC; for γ at pH 7.4: DiPhyPC bilayers. The protocol: Formation of planar lipid bilayers: We formed most planar lipid bilayers with the “folding technique.” We used a Teflon film (Eastern Scientific Inc, pore diameter 0.18-0.25 mm) was pretreated on each side with 2.5 μL of 5% hexadecane in pentane and air dried. This film was mounted using vacuum grease (Dow Corning, High vacuum grease) to a custom made Teflon chamber separating two buffer compartments each with a volume capacity of 4 mL. After adding 1 mL of electrolyte (0.01 M to 1.00 M KCl buffered with HEPES pH 7.4) to each compartment, lipids were spread from a solution in pentane onto the surface of the electrolyte solutions (specifically, 4-6 μL from 25 mg mL-l solution DiPhyPC or from 6.25 mg mL-l each of 50% DOPS and 50% POPE or from 25 mg mL-l DODAP mixed with 25 mg mL-l DiPhyPC in a 1:9 ratio. Three additional milliliters of electrolyte solution were added to each side of the chamber to raise the liquid levels above the aperture. We formed the bilayers from apposition of two monolayers of lipids using the method described by Montal et al. (Proc. Natl. Acad. Sci. U.S.A. 1972, 69, 3561-3566). Briefly, bilayers were obtained by consecutively raising the liquid level in each compartment until the pore was completely covered by electrolyte. If at this point the pore was not closed by a lipid bilayer, then the liquid level in one or both compartments was lowered below the pore level by aspirating electrolyte into a 3 mL syringe, followed by raising the electrolyte solution again.
Planar lipid bilayers were also made with the “painting technique”. We pretreated each side of a pore in a bilayer cup (Warner Instruments, Delrin perfusion cup, volume 1 mL, pore diameter 250 μm) with ˜2 μL of a 25 mg mL-l solution of DiPhyPC in hexane. After adding recording buffer (0.01 M KCl to 1.00 M KCl buffered with HEPES, pH=7.4) to both compartments of the bilayer setup, we “painted” a solution of 20 mg mL-l DiPhyPC in n-decane over the pore by using a paint brush with a fine tip. We followed the thinning of the decane droplet to form a planar bilayer by monitoring the capacitance of the bilayer. After verifying that bilayers were stable for several minutes (in the range of ±200 mV applied voltage) and that the capacitances were above 80-90 pF, gA was added (4-8 μL from 1 ng mL-l in ethanol), derivatives 1 or 2 (2-10 μL from 100 ng mL-l in ethanol), or derivative 3 (4-10 μL from 100 ng mL-l in ethanol) directly to the bilayer chambers.
Ion channel measurements: We performed single channel recordings in “voltage clamp mode” using Ag/AgCl electrodes (Warner Instruments) in each compartment of the bilayer chambers. Data acquisition and storage was carried out using custom software in combination with either an EPC-7 patch clamp amplifier from List Medical Electronic (set at a gain of 100 mV pA-1 and a filter cutoff frequency of 3 kHz) or a Geneclamp 500 amplifier from Axon Instruments (with a CV-5B 100GU headstage, set at a gain of 100 mV pA-1 and filter cutoff frequency of 1 kHz). We used the EPC-7 amplifier for most folded bilayers and the Geneclamp 500 amplifier for most painted bilayers. The data acquisition boards for both amplifiers were set to a sampling frequency of 15 kHz. All current traces shown in the figures were further filtered using a digital Gaussian low-pass filter with a cutoff frequency of 30 Hz. The current traces we used to generate all data that was recorded at applied potentials s 50 mV were filtered at 10 Hz.
We performed the analysis of the single channel current traces by computing histograms of the currents from the original current-time traces with ClampFit 9.2 software from Axon Instruments. From these histograms we extracted the main current values by fitting a Gaussian function to the peaks in the histograms. […] Single channel conductances reported in this paper always refer to the main conductance state (i.e. to the dominant peaks in the current histograms).

A short description of assay [2]: Single-channel conductance in negatively charged planar bilayers (50% POPE, 50% DOPS). The format is biochemical. To be noted: 0.01 M KCl. The text has this:
The data acquisition boards for both amplifiers were set to a sampling frequency of 15 kHz.

Assay [3] can be described thus: Single-channel conductance of homodimeric gA pores in planar lipid bilayers made from DiPhyPC (Example 1). The format is biochemical. The conditions noted are these: 20 mM KCl plus 10 mM KOH; for γ at pH 12: DiPhyPC bilayers, homodimers.
Assay [4] can be described thus: Single channel recordings of gA derivatives in planar lipid bilayers (Example 2). The format is biochemical. The conditions noted are these: applied potential 100 mV, 20 mM KCl, 0.2 mM HEPES pH 7.4. The protocol:
Formation of Planar Lipid Bilayers: Planar lipid bilayers were formed by the “folding technique.” Briefly, a film (e.g., Teflon®, Eastern Scientific Inc, pore diameter 0.1-0.2 mm) that was pretreated on both sides of the pore with 2 μL of 5% (v/v) hexadecane in pentane. This film was mounted using vacuum grease (Dow Corning, High vacuum grease) to a custom-made Teflon chamber separating two buffer compartments each with a volume capacity of 4 mL. After addition of 1 mL of electrolyte (20 mM KCl buffered with 0.2 mM HEPES pH 7.4 or 140 mM KCl buffered with 10 mM phosphate pH 8.0) to each compartment, lipids were spread at the air-water interface of the electrolyte solution in both compartments. Three additional milliliters of the same electrolyte solution were added to each compartment to raise the liquid level above the aperture in the Teflon film. The bilayers were formed on the pore of the Teflon film by aspirating the electrolyte solution into a 3 mL syringe, followed by dispensing the electrolyte solution back into each compartment.
Ion Channel Measurements: Single channel recordings in “voltage clamp mode” were performed using Ag/AgCl pellet electrodes (Warner Instruments) in each compartment of the bilayer setup. Data acquisition and storage was carried out using custom software in combination with an EPC-7 patch clamp amplifier from Heka (set at a gain of 10 mV pA^−1 and a filter cutoff frequency of 3 kHz). The data acquisition board for the amplifier was set to a sampling frequency of 15 kHz. All current traces shown in the figures were further filtered using a digital Gaussian low-pass filter with a cutoff frequency of 4 Hz.
The analysis of single channel current traces was performed by computing histograms of the currents from the original current versus time traces with ClampFit 9.2 software from Axon Instruments. From these histograms, main current values were extracted by fitting a Gaussian function to the peaks in the histograms. […]

The target of assay [5] is bovine carbonic anhydrase II (CA, EC 4.2.1.1) (Bos taurus, UniProt P00921). Briefly: Detection of protein-ligand binding interactions using ion channel measurements. The conditions noted are these: 12 pM structure 11, 50 μM CA, 140 mM KCl, 10 mM phosphate pH 8.0, 100 mV. The protocol: Benzenesulfonamides are well-known ligands for carbonic anhydrase II (CA, EC 4.2.1.1), a Zn^2+-containing protein.
Detection of protein-ligand binding interactions using ion channel measurements: About 1 μL (from a 100 ng mL^−1 solution in ethanol) of structure 11 (to afford a final concentration of 12 pM of structure 11) was added to each compartment of a bilayer setup containing as electrolyte 140 mM KCl and 10 mM phosphate buffer (pH 8.0). The conductance was recorded at 100 mV.

A further assay relates to Alkaline Phosphatase. The protocol:
Monitoring the enzymatic hydrolysis of glycolic acid-O-phosphate with Alkaline Phosphatase by NMR: Glycolic acid-O-phosphate (1.1 mg, 7.1 μmol) was added to a buffer containing 0.5 mL of 100 mM KCl, 140 mM Na2CO3 buffer in 0.5 mL of D2O at pD 9.4. […] (0.5 mg, 1 nmol) was added to the solution and ^31P-NMR spectra were taken at various time points to monitor the enzymatic hydrolysis of glycolic acid-O-phosphate to glycolic acid. ^31P-NMR (300 MHz, D2O): glycolic acid-O-phosphate: δ 3.33 ppm, free inorganic phosphate: 2.54 ppm using an internal 85% phosphoric acid standard (set to 0 ppm).

Experimental findings from patent US8586369B2, “Ion channel-forming peptides” (The Regents of the University of California, priority 2007, dated 2013) are described below.

Several values for one entry are separate records, joined by “and”; a condition that tells them apart may be missing. Equal entries are not always repeated. Entries after “also recorded” stand apart in the source; their conditions may differ.

bovine carbonic anhydrase II (CA, EC 4.2.1.1), sequence (P00921 whole entry): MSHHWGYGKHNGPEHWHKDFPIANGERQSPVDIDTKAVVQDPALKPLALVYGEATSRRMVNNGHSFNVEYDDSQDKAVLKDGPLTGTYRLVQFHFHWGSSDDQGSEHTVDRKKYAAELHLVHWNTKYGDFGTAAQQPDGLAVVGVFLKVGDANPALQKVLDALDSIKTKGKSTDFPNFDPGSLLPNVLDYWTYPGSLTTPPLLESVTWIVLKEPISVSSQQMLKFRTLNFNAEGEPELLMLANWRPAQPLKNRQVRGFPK

Take “gramicidyl taurinyl succinate [compound 1]”: the “Single-channel conductance γ” value was 3.5 ± 0.3 pS in assay [1] (0.01 M KCl), 11.0 ± 0.4 pS in assay [1] (0.10 M KCl) and 19.5 ± 0.4 pS in assay [1] (1.00 M KCl). Further, the “γ-ratio to gA-gA” value in assay [1] (0.01 M KCl) is given as “about 1.3”; in assay [1] (0.01 M KCl, listed as 1-1), 1.3; in assay [1] (0.10 M KCl) it was 1.1; in assay [1] (1.00 M KCl), 1.0. The “difference in single channel conductance compared to gA” value worked out at 7% in assay [1] (approximately 0.10 M KCl) and 3% in assay [1] (approximately 1.00 M KCl). For the same compound, the “Single-channel conductance γ in negatively charged bilayers” value in assay [2] (0.1 mM HEPES pH 7.4) is on record as 26.8±0.9 pS.
In the case of Gramicidin A [gA, reference compound], the “Single-channel conductance γ” value in assay [1] (0.01 M KCl) was 2.7 ± 0.5 pS; in assay [1] (0.10 M KCl), 10.3 ± 0.1 pS; in assay [1] (1.00 M KCl, listed as gA-gA), 20 pS and 20.0 ± 0.2 pS. In addition, the “γ at pH 7.4” value in assay [1] (20 mM KCl) turned out to be 4.5 ± 0.1 pS. Moreover, in assay [2] (0.1 mM HEPES pH 7.4, listed as gA-gA), the “Single-channel conductance γ in negatively charged bilayers” value is 26.9±0.2 pS and 27 pS. Also, the “γ at pH 12” value in assay [3] was found to be 7.8 ± 0.2 pS.
As for gramicidamine, the “conductance compared with gA-gA at pH 7.4” value in assay [1] (20 mM KCl, DiPhyPC) was “significantly less”. The “γ at pH 7.4” value in assay [1] (20 mM KCl) is 3.8 ± 0.2 pS. In addition, the “ion channel activity in planar lipid bilayers” value in assay [4] is “retained well-defined ion channel activity”. Besides, in assay [3] (DiPhyPC), the “conductance compared with gA-gA at pH 12” value is reported as “indistinguishable”. In addition, the “γ at pH 12” value in assay [3] amounted to 7.7 ± 0.9 pS.
For “gA-triazole-benzenesulfonamide [structure 11]”, the results for the “effect of CA on ion channel activity” value in assay [5] and in assay [5] (listed as gA-sulfonamide 11) were “suppression of ion channel activity; also recorded: reduction of ion channel activity” and “reduces the observed transmembrane ion flux”, respectively.
For the compound `O=C(O)COP(=O)(O)O` [glycolic acid-O-phosphate], the “time after which the enzymatic hydrolysis was completed” value in the assay on Alkaline Phosphatase (7.1 μmol substrate, 1 nmol enzyme, 100 mM KCl, 140 mM Na2CO3, pD 9.4) came to 50 min. The “hydrolysis by AP” value in the assay with Alkaline Phosphatase (31P-NMR spectroscopy) is “hydrolyzed by AP”.
